Earlier results as cited in US20120065069A1, “AGENT FOR REDUCING NICOTINE AND HARMFUL COMPONENTS IN TOBACCO LEAVES FOR USE IN FIELD CULTIVATION OF TOBACCO” (TOBACCO RESEARCH INSTITUTE OF HUBEI PROVINCE, priority 2009, published 2012).

Assays:
flue-cured tobacco = settings: for effect in nicotine reduction: Feng Ding thesis 2006, flue-cured tobacco; for effect in reducing the nicotine content: single ingredient, flue-cured tobacco, Liu et al. 2005 (IAA), Gao et al. 2005 (α-NAA, variety K326)
bean seedling = settings: 2 mmol/L salicylic acid
corn = settings: 0.5 mmol/L salicylic acid

| Compound | effect in nicotine reduction (flue-cured tobacco) | effect in reducing the nicotine content (flue-cured tobacco) | further results |
| --- | --- | --- | --- |
| O=C(O)COc1ccc(Cl)cc1Cl [2,4-D, 2,4-dichlorophenoxyacetic acid] | significant effects |  |  |
| C[N+](C)(C)CCO.[Cl-] [CC, choline chloride] | significant effects |  |  |
| O=C(O)Cc1c[nH]c2ccccc12 [indolylacetic acid] |  | certain effects |  |
| O=C(O)Cc1cccc2ccccc12 [naphthylacetic acid] |  | certain effects |  |
| O=C(O)c1ccccc1O [salicylic acid] |  |  | effect on damage of drought stress to bean seedling (bean seedling): alleviate the damage of drought stress; effect on tolerance of corn to low temperature (corn): enhance the tolerance |
